Test results: patent US12582646B2, “Method for treating drug or alcohol dependency” (AETHER THERAPEUTICS INC., priority 2019, dated 2026)

Legend:
[1] = tested on: spontaneous opioid receptor activity; conditions: opioid dependent mice, 24 hours after the last morphine dose; cited from earlier work
[2] = tested on: peripheral and central opioid receptors; conditions: mice, given orally; cited from earlier work
[3] = tested on: rats habituated to high alcohol consumption; conditions: acute; cited from earlier work
mu opioid receptor [4] = assay: internal unpublished: co-administration with morphine or methadone, subsequent opioid withdrawal, guinea pigs; assay type: in vivo; conditions: dose as low as 0.01 mg/kg given together with morphine or methadone
Excerpt: (§1) (See Corder G, Doolen S, Donahue R R, Winter M, Jutras B, He Y, Hu X, Wieskopf J S, Mogil J S, Storm D R, Wang Z J, McCarson K E, and Taylor B K, Constitutive μ-opioid receptor activity leads to long-term endogenous analgesia and dependence. Science 2013; 341,1394-1399; Corder G, Tawfik V L, Wang D, Sypek E I, Low S A, Dickinson J R, Sotoudeh C, Clark J D, Barres B A, Bohlen C J, Scherrer (2017). Loss of μ opioid receptor signaling in nociceptors, but not microglia, abrogates morphine tolerance without disrupting analgesia. Nat Med. 23:164-173; J. Oberdick, Y. L., M. A. Phelps, M. S. Yudovich, K. Schilling, and W. Sadee. Preferential delivery of an opioid antagonist to the fetal brain in pregnant mice. J. Pharmacol. Exp. Ther. 358: 22-30 (2016).

[5] = in vivo; cited from earlier work
mu opioid receptor [6] = target: T1, mu opioid receptor (Mus musculus, UniProt P42866); assay: internal unpublished: co-administration with morphine or methadone, subsequent opioid withdrawal, mice; assay type: in vivo; conditions: dose as low as 0.01 mg/kg given together with morphine or methadone
T1 construct: from tissue; host or cells: living mice (whole-animal pharmacology)
T1 sequence (P42866 whole entry): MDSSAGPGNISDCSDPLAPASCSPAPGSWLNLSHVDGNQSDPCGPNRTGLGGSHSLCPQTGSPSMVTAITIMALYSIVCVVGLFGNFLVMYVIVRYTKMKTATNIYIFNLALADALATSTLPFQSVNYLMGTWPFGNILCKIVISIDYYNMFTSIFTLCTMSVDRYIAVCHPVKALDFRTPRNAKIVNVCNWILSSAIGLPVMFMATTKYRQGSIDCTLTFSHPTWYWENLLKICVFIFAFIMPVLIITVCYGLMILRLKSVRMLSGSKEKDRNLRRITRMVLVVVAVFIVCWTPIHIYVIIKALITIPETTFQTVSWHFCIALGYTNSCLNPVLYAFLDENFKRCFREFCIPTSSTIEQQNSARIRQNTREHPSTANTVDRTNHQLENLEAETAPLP
Excerpt: as §1

mu opioid receptor [7] = target: T1, mu opioid receptor; conditions: 0.02 mg/kg co-injected s.c. with 20 mg/kg morphine for several days, juvenile mice; cited from earlier work
[8] = tested on: peripheral and central opioid receptors; conditions: methadone maintenance subjects, single intravenous dose 0.5-1 mg; cited from earlier work
opioid receptors = conditions: acutely morphine-dependent mice; cited from earlier work
[9] = tested on: peripheral and central opioid receptors; assay: intravenous 6beta-naltrexol in methadone maintenance subjects
[10] = target: peripheral and central opioid receptors; assay: blocking morphine iv effects (analgesia, slowing of bowel movement) in opioid naive subjects; assay type: in vivo, humans
Procedure: Recommended doses are 20 mg (range 10-80 mg) once or twice daily for 4-8 days, then 40 mg (range 20-120 mg) once or twice daily for 1-4 weeks, and if necessary, further escalation to 100 mg (range 40-300 mg) once or twice daily for maintenance. […] Dosing schedules can be facilitated by designing sustained release formulations as described in preceding incorporated patents.

oral bioavailability = assay type: in vivo; conditions: value assumed for oral dosing
Procedure: This step applies to opioid use disorders. […] The recommended initial dose is 2 mg naltrexol orally (assuming ˜30% oral bioavailability; estimated dosage range 0.5-10 mg), once or twice daily for 2-4 days, followed by 6 mg once or twice daily for 4-8 days (estimated dosage range 2-20 mg twice daily). Step 1 is designed to suppress peripheral effects of the opioid drug with minimal peripheral withdrawal symptoms, and reverse at least partially opioid dependence.
Opioid antagonist maintenance with 6-beta-naltrexol may require 100 mg (dosage range 40-300 mg) per day orally (assuming 20-40% bioavailability). […] Ceasing opioid use altogether must be medically supervised for at least one year to determine the rate of recidivism.

[11] = tested on: peripheral opioid receptors; assay: peripherally selective activity (internal results); assay type: in vivo
Excerpt: The invention embodies usage of any of these compounds or derivatives or metabolites thereof. […] In combinations, any opioid analgesic is a feasible component, embodied in the combination patents mentioned above. An example is a combination product of oxycodone or hydrocodone with 6beta-naltrexol.

mu opioid receptor [12] = target: mu opioid receptor (Homo sapiens, UniProt P35372); conditions: cited from earlier work
mu opioid receptor (Homo sapiens, UniProt P35372), sequence (P35372 whole entry, species assumed): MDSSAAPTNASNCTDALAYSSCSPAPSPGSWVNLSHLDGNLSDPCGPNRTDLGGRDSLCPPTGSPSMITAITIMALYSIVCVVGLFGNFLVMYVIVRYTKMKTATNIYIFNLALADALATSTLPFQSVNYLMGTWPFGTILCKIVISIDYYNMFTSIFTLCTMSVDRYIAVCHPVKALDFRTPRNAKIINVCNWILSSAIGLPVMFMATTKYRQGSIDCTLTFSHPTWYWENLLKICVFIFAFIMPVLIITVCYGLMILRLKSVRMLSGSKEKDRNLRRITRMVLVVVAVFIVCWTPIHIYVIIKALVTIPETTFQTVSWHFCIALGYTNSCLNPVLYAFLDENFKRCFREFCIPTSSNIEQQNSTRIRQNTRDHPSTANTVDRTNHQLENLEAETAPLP

[13] = 4 methadone replacement patients, IV doses up to 1 mg

## O=C1CC[C@@]2(O)[C@H]3Cc4ccc(O)c5c4[C@@]2(CCN3CC2CC2)[C@H]1O5 [naltrexone]
[1]
  withdrawal elicited by the antagonist: robust withdrawal
[2]
  potency in blocking peripheral and central opioid analgesic effects: equally potent

## Oc1ccc2c3c1O[C@H]1[C@H](O)CC[C@@]4(O)[C@@H](C2)N(CC2CC2)CC[C@]314 [6beta-naltrexol]
[3]
  alcohol and sucrose intake: prevents both alcohol and sucrose intake acutely, but only at high doses
Mu opioid receptor [4]
  subsequent opioid withdrawal: reduces or prevents subsequent opioid withdrawal
[5]
  half-life compared with typical opioid analgesics: longer half-life
Mu opioid receptor [6]
  subsequent opioid withdrawal: reduces or prevents subsequent opioid withdrawal
Mu opioid receptor [7]
  naloxone-withdrawal jumping after co-injection with morphine: significantly reduced
[8]
  central withdrawal symptoms: no central withdrawal symptoms
  effect on opioid induced constipation: can reverse opioid induced constipation
Opioid receptors
  effect on naloxone induced withdrawal jumping: prevent naloxone (inverse agonist) induced withdrawal jumping
[9]; 4 methadone replacement patients sensitive to 0.05 mg naloxone i.v.
  tolerated IV dose: up to 1 mg
[9]; [13]
  bowel effect: bowel movements
  withdrawal symptoms: some additional peripheral, but no central, withdrawal symptoms
[10]; iv
  IC50 for blocking morphine induced slowing of bowel movement: ~3 mg
[10]; single dose of 20 mg iv, opioid naive subjects
  block of analgesia caused by 10 mg morphine iv: failed to block analgesia
Oral bioavailability; listed as 6-beta-naltrexol
  oral bioavailability: 20-40%
Oral bioavailability; listed as naltrexol
  oral bioavailability: ~30%

## CC(=O)N[C@@H]1CC[C@@]2(O)[C@H]3Cc4ccc(O)c5c4[C@@]2(CCN3CC2CC2)[C@@H]1O5 [6beta-naltrexamide]
[11]
  peripherally selective activity: strong peripherally selective activity
Mu opioid receptor [12]
  type of opioid antagonism: neutral antagonism
